{"source": "patent US11439611B2", "about": "“Administration of serine protease inhibitors to the stomach” (LEADING BIOSCIENCES, INC., priority 2010, dated 2022)", "format_in_all_cases": "in vivo", "key": {"[1]": {"experiment": "Rat model of severe ischemic intestine with enteral oxygen carrier", "details": "30 min ischemia, 17 ml solution for a 230 g rat, saturated for 10 min in oxygen", "experimental": "More specifically, the feasibility was illustrated in a model with 30 min ischemia with perfluorodecalin solution 17 ml for 230 g rat) previously saturated for 10 min in oxygen. Thus, it should be noted that gastric, duodenal, jejunal, and ileal irrigation (or otherwise exposure) may be used as a stand-alone or supplemental treatment in human and other mammals. Most typically, the volume of the oxygen carrier will be adjusted such as to allow intimate contact with the oxygen carrier throughout the stomach, duodenum, jejunum, and/or ileum."}, "[2]": {"system": "digestive enzymes", "experiment": "Shock treatment in rats with an enteral protease inhibitor to block digestive enzymes", "experimental": "With respect to suitable quantities of one or more protease inhibitors, the inventors observed in various animal models that shock treatment using protease inhibitors to block digestive enzymes requires for at least some protease inhibitors a minimum effective dosage that is substantially above the dosage contemplated in the '283 patent. For example, using tranexamic acid in rats, the minimum effective dose was 100 mg/kg (127 mM in the enteral solution with 17 ml to a 350 gm rat). Here, tranexamic acid was given to rats in 18 cc of fluid. The equivalent concentration in 2 liters (deemed suitable as human dose) is 3.2 grams. The maximum dose tested in rats was 1125 mg/kg, which is equivalent to 36 grams for a human dose in 2 liters of fluid to be administered into the lumen of the stomach or intestine."}, "[3]": {"experiment": "Case study: human patient with Fournier's gangrene, septic shock and multiple organ failure, treated with gabexate mesilate", "experimental": "For example, as reported in a case study from the Cheng-Hsin General Hospital (that was approved by Human Ethics Committee and written consent by the patient), a heart transplant patient was regularly followed-up in the clinic with cyclosporine, mycophenolate, and prednisolone therapy for four years. The cyclosporine level was kept around 150, […] without evidence of rejection or infection during this period of follow-up. […] The wound was self-managed by the patient and deteriorated after one week. They were hospitalized and immediately admitted to the intensive care unit. At presentation, blood pressure was 80/40 mmHg in spite of aggressive fluid management with 2 liters of crystalloid and colloid fluid over 5 hours and vasopressor therapy with dopamine […]. […] They were intubated and received broad-spectrum antibiotics, including teichomycin, meropenem, and caspofungin. […] The diagnosis was Fournier's gangrene complicated with septic shock and multiple organ failure. Due to persistent septic shock and worsening septic markers, the patient received in addition a diverting colectomy and intravenous total parental nutrition. Furthermore, the patient also received a second wide debridement. The wound culture was positive with multiple drug resistance Pseudomonas aeruginosa and Bacteroides thetaiotaomicron.\nIntravenous gabexate mesilate was given for severe septic shock and elevated amylase and lipase values (as markers for presence of pancreatic enzymes) at a dose of 3000 mg/day. At the same time, the patient stopped all enteral feeding and total parental nutrition was given with positive fluid balance of more than 1 liter per day.\nTreatment was then switched to enteral gabexate mesilate infusion by continuous feeding into the stomach via nasogastric tube at a dose of 3000 mg/day in 2000 ml of normal saline. […] On the third day, the dose of gabexate mesilate was reduced to 300 mg/day in a fluid volume of 2000 ml and kept at this level for 10 days before discharge of the patient from the intensive care unit. […] Three days after enteral gabexate mesilate treatment they were extubated. On day 13, the immunosuppressant medication was restored with reduced dosage compared to the time before hospitalization and they were discharged from the ward after one month of admission. Five months after discharge at the time of this report writing the patient was alive."}, "[4]": {"details": "enteral via nasogastric tube, 3000 mg/day, within two days"}}, "data": [{"compound": "FC1(F)C(F)(F)C(F)(F)C2(F)C(F)(F)C(F)(F)C(F)(F)C(F)(F)C2(F)C1(F)F", "note": "(stereo not shown) [perfluorodecalin, Perfluorodecalin]", "values": [{"measurement": "intestinal damage / entry of digestive enzymes into the wall of the intestine", "setting": "[1]", "result": "minimize intestinal damage"}]}, {"compound": "NC[C@H]1CC[C@H](C(=O)O)CC1", "note": "[tranexamic acid]", "values": [{"measurement": "minimum effective dose, as concentration in the enteral solution", "setting": "[2]; 17 ml to a 350 gm rat", "result": 127, "unit": "mM"}, {"measurement": "equivalent of the minimum effective rat dose in 2 liters (human dose)", "setting": "[2]; extrapolated from rat to a human dose in 2 liters", "result": 3.2, "unit": "grams"}, {"measurement": "minimum effective dose", "setting": "[2]; rats, enteral, given in 17-18 ml of fluid to a 350 gm rat", "result": 100, "unit": "mg/kg"}]}, {"compound": "[Ethyl p-(6-guanidinohexanoyloxy) benzoate] methanesulfonate [gabexate mesilate]", "values": [{"measurement": "effectiveness of a single dose/day given via NG tube in human", "setting": "[3]; 2 to 4 grams in 1 to 2 liter solution with GOLYTELY (PEG) or saline, over multiple days (up to 14)", "result": "very effective"}, {"measurement": "blood pressure", "setting": "[3]; continuous feeding into the stomach via nasogastric tube, 3000 mg/day in 2000 ml normal saline, within two days, minimal dose of dopamine", "result": "stabilized"}, {"measurement": "amylase, lipase and white blood cell (WBC) count", "setting": "[3]; enteral via nasogastric tube, 3000 mg/day, then 300 mg/day from the third day for 10 days, FIG. 1A", "result": "reduced to control values"}, {"measurement": "glucose level", "setting": "[3]; [4]", "result": "could be controlled by reduced dose of subcutaneous insulin"}, {"measurement": "patient's level of conscience", "setting": "[3]; [4]", "result": "increased"}, {"measurement": "x-ray of the abdomen (ileus)", "setting": "[3]; enteral via nasogastric tube, day 16 vs day 1, FIG. 1C", "result": "improved ileus"}, {"measurement": "survival", "setting": "[3]; five months after discharge", "result": "alive"}, {"measurement": "plasma amylase and lipase values", "setting": "[3]; intravenous, 3000 mg/day, over the next 12 hours, enteral feeding stopped, total parenteral nutrition", "result": "did not reduce"}, {"measurement": "extubation", "setting": "[3]; three days after enteral treatment", "result": "extubated"}]}]}
